Test results: US20090326196A1 (priority 2006, published 2009)
Square brackets hold non-standard residues; d marks the D form. Peptide text beside a SMILES is read from it. Leu(5,5,5,5',5',5'-F6) = N[C@@H](CC(C(F)(F)F)C(F)(F)F)C(=O)O

Tests used:
[1] = test system: human red blood cells (hRBC); format: cell-based
Procedure: The selectivity with which the peptides are able to lyse bacterial cells compared to mammalian cells was interrogated by a hemolysis assay against human red blood cells (hRBC). […] Our results are consistent with this trend.
Fresh human red blood cells (hRBCs) were centrifuged at 3,500 rpm and washed with PBS buffer until the supernatant was clear. The hRBCs were then resuspended and diluted to a final concentration of 1% (v/v) in PBS and stored at 4° C. […] An aliquot (50 μL) of supernatant was transferred to a new 96-well plate containing 50 μL H2O in each well. The absorbance at 415 nm was measured using a plate reader. Wells containing melittin at 100-400 μg/mL served as positive controls, and wells containing only buffer and hRBCs served as negative controls. The percentage hemolysis was calculated using the equation:
where complete hemolysis is defined as the average absorbance of all wells containing 100-400 μg/[…] melittin.

trypsin = test system: T1, trypsin; test: in vitro; format: in vitro ADME, bovine; details: bovine, isolated enzyme trypsin, pH 7.4
T1 construct: trypsin (from bovine pancreas, EC 3.4.21.4); from tissue; host or cells: bovine pancreas
Procedure: The proteolytic stability of peptides towards trypsin (from bovine pancreas, EC 3.4.21.4) was determined by an analytical RP-HPLC assay. […] The enzyme concentration (in 1 mM HCl) was determined by absorbance at 280 nm. […] The amount of enzyme was optimized so that kinetics of proteolytic reactions could be assayed by RP-HPLC (detection at 230 nm). The peptides were incubated with trypsin at 37° C. over a period of 3 h. Aliquots (10 μL) were taken at different reaction times, diluted with 0.2% TFA (440 μL) and stored at −80° C. […] The remaining full-length peptide concentration was normalized with respect to the initial concentration.
where A is the normalized concentration of peptides; k is the pseudo first order rate constant; t is the reaction time in mins; and [A]0 is the initial concentration of peptides. Each fragment cleaved from the full-length peptides was identified by ESI-MS so that cleavage patterns could be established and compared.

For `CC[C@H](C)[C@H](NC(=O)CN)C(=O)NCC(=O)N[C@@H](CCCCN)C(=O)N[C@@H](Cc1ccccc1)C(=O)N[C@@H](CC(C(F)(F)F)C(F)(F)F)C(=O)N[C@@H](Cc1c[nH]cn1)C(=O)N[C@@H](C)C(=O)N[C@@H](CC(C(F)(F)F)C(F)(F)F)C(=O)N[C@@H](CCCCN)C(=O)N[C@@H](CCCCN)C(=O)N[C@@H](Cc1ccccc1)C(=O)N[C@@H](CC(C(F)(F)F)C(F)(F)F)C(=O)N[C@@H](CCCCN)C(=O)N[C@@H](C)C(=O)N[C@@H](Cc1ccccc1)C(=O)N[C@@H](CC(C(F)(F)F)C(F)(F)F)C(=O)N[C@@H](C)C(=O)N[C@@H](CCC(=O)O)C(=O)N[C@@H](CC(C(F)(F)F)C(F)(F)F)C(=O)N[C@@H](CCSC)C(=O)N[C@@H](CC(N)=O)C(=O)N[C@@H](CO)C(N)=O` [Peptide M2F5] (H-GIGKF[Leu(5,5,5,5',5',5'-F6)]HA[Leu(5,5,5,5',5',5'-F6)]KKF[Leu(5,5,5,5',5',5'-F6)]KAF[Leu(5,5,5,5',5',5'-F6)]AE[Leu(5,5,5,5',5',5'-F6)]MNS-NH2), the “hemolytic activity relative to parent peptide, in words” value [1] was “significantly more hemolytic” and the remaining at 3 h, 0.25 mM (trypsin) was greater than 78%.
